# Assay results taken from US10912850B2, “18F-FNDP for pet imaging of soluble epoxide hydrolase (sEH)” (THE JOHNS HOPKINS UNIVERSITY, priority 2016, dated 2021).
# Several values for one entry are separate records, joined by “and”; a condition that tells them apart may be missing. Equal entries are not always repeated. Where two headings read alike, the source gives them in different places.
# Legend:
# [1] = Molecular properties (log P); type: physicochemical
# [2] = Radiometabolite HPLC analysis of baboon arterial plasma; type: in vivo, Papio anubis (baboon); settings: 90 min post-injection
# Method: Baboon arterial blood samples were collected at very short intervals (<5 s) initially and gradually at prolonged intervals throughout the PET study for determination of plasma radioactivity. […] Med. Biol., 2000). […] The effluent from the capture column, containing only highly polar components, flowed through a dual BGO detector (Bioscan, Washington, D.C.). The solvent was then switched to a mixture of 60% acetonitrile/40% 0.1 M aqueous ammonium formate pH=2.7 (2 mL/min) to elute the radiolabeled components bound to the capture column onto the analytical column (Gemini C18, 4.6×254 mm, Phenomenex, Torrance, Calif.).
# sEH [3] = test: Baboon dynamic PET imaging, baseline and blocking (SUV, VT, K1); settings: for Time of regional TAC peak: post-injection; for Average K1 (rate constant for transfer from arterial plasma to tissue): two-tissue-three-compartment model
# Method: Dynamic baseline and blocking PET experiments (90 min) were performed on three male baboons (Papio anubis) weighing 23.9, 25.0 and 28.2 kg, using the High Resolution Research Tomograph (HRRT, CPS Innovations, Inc., Knoxville, Tenn.). […] Radiometabolite analysis in baboon arterial blood was performed under the general conditions published previously (Hilton et al., Nucl. Med. Biol., 2000).
# PET experiments were performed on a male baboon (Papio anubis) weighing 28.2 kg, using the High Resolution Research Tomograph (HRRT, CPS Innovations, Inc., Knoxville, Tenn.). The animal underwent one baseline PET scan and one blocking scan 3 weeks later. The animal was fasted for 12 h prior to each PET study. Anesthesia was induced with intramuscular ketamine (7.5-10 mg/kg) and maintained with a continuous intravenous infusion of propofol at 0.3-0.4 mg/kg/min throughout the PET experiment. One venous catheter was inserted for the radioligand injection, and one arterial catheter inserted to obtain arterial blood samples. Measurement of the arterial plasma input function was conducted through collection of 43 blood samples over the course of the 90 min dynamic PET scan. The baboon was also intubated to facilitate respiration, and circulatory volume was maintained by constant infusion of isotonic saline. Physiological vital signs including heart rate, blood pressure, electrocardiogram, and oxygen saturation were monitored continuously throughout the study.
# The animal was positioned in the PET scanner with the head immobilized with a thermoplastic mask. A 6 min transmission scan was acquired using a rotating [^137Cs] cesium source for attenuation correction.
# The 90 min PET list mode data were binned into 22 frames (three 20 s, two 30 s, two 1 min, three 2 min, eight 5 min, and four 10 min frames). The data were then reconstructed using the iterative ordered subsets expectation maximization (OS-EM) algorithm (with six iterations and 16 subsets), with correction for radioactive decay, dead time, attenuation, scatter and randoms. The attenuation maps were generated from 6 min transmission scans performed with a [^137Cs] cesium point source prior to the emission scans. The reconstructed image space consisted of cubic voxels, each 1.22 mm^3 in size, and spanning dimensions of 31 cm×31 cm (transaxially) and 25 cm (axially).
# The software package PMOD (v3.3, PMOD Technologies Ltd, Zurich, Switzerland) was used for the following image processing and subsequent kinetic analysis steps. The previously acquired brain MRI T1-weighted images for the baboon were co-registered to the reconstructed dynamic PET images acquired in this study. Through manually matching the co-registered MRI to the INIA19 Template and NeuroMaps Atlas for Primate Brain Image Parcellation and Spatial Normalization (Rohlfing et al., Frontiers in neuroinformatics, 2012), 13 representative baboon brain VOIs were defined, including frontal and temporal gyms, thalamus, hippocampus, caudate, putamen, amygdala, globus pallidus, insula, hypothalamus, cerebellum, corpus callosum, and white matter. Brain regional TACs were then generated for both baseline and blocking PET scans using those VOIs.
# Following the consensus nomenclature for in vivo imaging of reversibly binding radioligands (Innis et al., J. Cereb. Blood Flow Metab., 2007), due to the lack of a non-displaceable reference region, the main outcome measure was regional distribution volume (VT), defined as the ratio of the concentration of the radioligand in regional brain tissue to that in plasma at equilibrium. Regional VT is proportional to the receptor density in the defined VOL VT was calculated using the Logan graphical method for each VOI (Logan et al., J. Cereb. Blood Flow Metab., 1990).
# [4] = Baseline regional brain biodistribution of 18F-FNDP in CD-1 mice; type: in vivo; settings: for Regional distribution in CD-1 mouse brain (mean % ID/g tissue ± SD): n=3
# Method: Baseline study in CD1 mice. […] The brains were removed and dissected on ice. Striatum, cortex, hippocampus, hypothalamus, cerebellum and the rest of brain were weighed and their radioactivity content was determined in a γ-counter LKB/Wallac 1283 CompuGamma CS (Perkin Elmer, Bridgeport, Conn.). Aliquots of the injectate were prepared as standards and their radioactivity content was determined along with the tissue samples. The percent of injected dose per gram of tissue (% ID/g tissue) was calculated.
# sEH [5] = target: T1, sEH (Mus musculus, UniProt P34914); test: Blocking of 18F-FNDP binding in CD-1 mice with nor-fluoro-FNDP (dose escalation); type: in vivo
# T1 construct: from tissue; host or cells: brain of living CD-1 mice (striatum, cortex, hippocampus, cerebellum)
# T1 sequence (P34914 1-554): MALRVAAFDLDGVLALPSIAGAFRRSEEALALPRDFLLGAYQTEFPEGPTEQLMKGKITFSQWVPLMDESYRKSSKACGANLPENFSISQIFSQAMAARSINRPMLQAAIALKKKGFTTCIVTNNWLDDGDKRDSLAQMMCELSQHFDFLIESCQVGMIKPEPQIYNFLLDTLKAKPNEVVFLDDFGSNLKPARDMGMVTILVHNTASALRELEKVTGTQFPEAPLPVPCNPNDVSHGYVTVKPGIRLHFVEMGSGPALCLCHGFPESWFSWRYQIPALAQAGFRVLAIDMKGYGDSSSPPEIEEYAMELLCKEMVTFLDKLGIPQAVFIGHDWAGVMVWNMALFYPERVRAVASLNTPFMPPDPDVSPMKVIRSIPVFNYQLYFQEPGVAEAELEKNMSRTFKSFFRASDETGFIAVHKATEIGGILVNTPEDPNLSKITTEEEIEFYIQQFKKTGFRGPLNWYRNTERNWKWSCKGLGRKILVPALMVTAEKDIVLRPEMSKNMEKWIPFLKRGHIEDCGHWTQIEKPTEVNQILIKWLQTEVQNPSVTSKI
# Method: Ninety minutes after administration of the radiotracer the animals were sacrificed by cervical dislocation, brain tissues were harvested, and their radioactivity content was determined.
# sEH [6] = type: in vivo, mice (sEH-KO, C57BL/6); settings: for Regional uptake, baseline: C57BL6 control mice, 60 min post-injection
# Method: All animals were sacrificed at 60 min after radiotracer injection.
smiles,measurement,setting,value
"O=C(NCCC(c1ccccc1)c1ccccc1)c1ccc(F)nc1 [FNDP, N-(3,3-diphenylpropyl)-6-fluoronicotinamide]",log P,[1],2.9
"O=C(NCCC(c1ccccc1)c1ccccc1)c1ccc([18F])nc1 [^18F-FNDP, N-(3,3-diphenylpropyl)-6-^18F-fluoronicotinamide]",Parent compound remaining in plasma,[2],20%
same,Blockade of brain uptake,"sEH [3]; baboon PET, all regions",95%
same,Time of regional TAC peak,sEH [3]; baboon blocking study (nor-fluoro-FNDP 2 mg/kg s.c.),about 1 min
same,Average SUV at the end of the scan,"sEH [3]; baboon blocking study, end of 90 min scan",0.18 g/mL
same,Brain SUV,sEH [3]; baboon brain,4
same,Time of regional TAC peak,"sEH [3]; baboon brain, baseline scan",about 5 min
same,Peak SUV of the entire brain,"sEH [3]; baboon, baseline scan",3.2
same,SUV of the entire brain at the end of the scan,"sEH [3]; baboon, baseline, end of 90 min dynamic scan",1.8
same,Average K1 (rate constant for transfer from arterial plasma to tissue),"sEH [3]; baboon, baseline",0.18 ml/cm^3/min
same,Average K1 (rate constant for transfer from arterial plasma to tissue),"sEH [3]; baboon, blocking",0.14 ml/cm^3/min
same,"Reduction of VT, blocking vs baseline","sEH [3]; baboon, cerebellum",93%
same,Average SUV at end of blocking scan as percent of the baseline value,"sEH [3]; baboon, end of 90 min scan",10%
same,"Reduction of VT, blocking vs baseline","sEH [3]; baboon, insula and amygdala",95%
same,Specificity of sEH radiolabeling,sEH [3]; both animal species (mouse and baboon),up to 95%
same,Peak brain uptake,"[4]; CD-1 mice, at peak uptake",5.2 percent injected dose per gram of tissue
same,Regional distribution in CD-1 mouse brain (mean % ID/g tissue ± SD),"[4]; Cerebellum, 5 min",2.75 ± 0.11 % ID/g tissue
same,Regional distribution in CD-1 mouse brain (mean % ID/g tissue ± SD),"[4]; Cerebellum, 15 min",1.31 ± 1.01 % ID/g tissue
same,Regional distribution in CD-1 mouse brain (mean % ID/g tissue ± SD),"[4]; Cerebellum, 30 min",1.09 ± 0.16 % ID/g tissue
same,Regional distribution in CD-1 mouse brain (mean % ID/g tissue ± SD),"[4]; Cerebellum, 60 min",0.52 ± 0.07 % ID/g tissue
same,Regional distribution in CD-1 mouse brain (mean % ID/g tissue ± SD),"[4]; Cerebellum, 90 min",0.29 ± 0.04 % ID/g tissue
same,Regional distribution in CD-1 mouse brain (mean % ID/g tissue ± SD),"[4]; Cortex, 5 min",4.69 ± 0.21 % ID/g tissue
same,Regional distribution in CD-1 mouse brain (mean % ID/g tissue ± SD),"[4]; Cortex, 15 min",2.92 ± 0.36 % ID/g tissue
same,Regional distribution in CD-1 mouse brain (mean % ID/g tissue ± SD),"[4]; Cortex, 30 min",2.07 ± 0.05 % ID/g tissue
same,Regional distribution in CD-1 mouse brain (mean % ID/g tissue ± SD),"[4]; Cortex, 60 min",0.87 ± 0.14 % ID/g tissue
same,Regional distribution in CD-1 mouse brain (mean % ID/g tissue ± SD),"[4]; Cortex, 90 min",0.45 ± 0.05 % ID/g tissue
same,Regional distribution in CD-1 mouse brain (mean % ID/g tissue ± SD),"[4]; Hippocampus, 5 min",3.29 ± 0.54 % ID/g tissue
same,Regional distribution in CD-1 mouse brain (mean % ID/g tissue ± SD),"[4]; Hippocampus, 15 min",2.51 ± 0.34 % ID/g tissue
same,Regional distribution in CD-1 mouse brain (mean % ID/g tissue ± SD),"[4]; Hippocampus, 30 min",1.76 ± 0.15 % ID/g tissue
same,Regional distribution in CD-1 mouse brain (mean % ID/g tissue ± SD),"[4]; Hippocampus, 60 min",0.81 ± 0.15 % ID/g tissue
same,Regional distribution in CD-1 mouse brain (mean % ID/g tissue ± SD),"[4]; Hippocampus, 90 min",0.43 ± 0.06 % ID/g tissue
same,Regional distribution in CD-1 mouse brain (mean % ID/g tissue ± SD),"[4]; Hypothalamus, 5 min",2.59 ± 0.18 % ID/g tissue
same,Regional distribution in CD-1 mouse brain (mean % ID/g tissue ± SD),"[4]; Hypothalamus, 15 min",1.66 ± 0.28 % ID/g tissue
same,Regional distribution in CD-1 mouse brain (mean % ID/g tissue ± SD),"[4]; Hypothalamus, 30 min",1.04 ± 0.08 % ID/g tissue
same,Regional distribution in CD-1 mouse brain (mean % ID/g tissue ± SD),"[4]; Hypothalamus, 60 min",0.51 ± 0.07 % ID/g tissue
same,Regional distribution in CD-1 mouse brain (mean % ID/g tissue ± SD),"[4]; Hypothalamus, 90 min",0.31 ± 0.05 % ID/g tissue
same,Regional distribution in CD-1 mouse brain (mean % ID/g tissue ± SD),"[4]; Rest of brain, 5 min",3.53 ± 0.11 % ID/g tissue
same,Regional distribution in CD-1 mouse brain (mean % ID/g tissue ± SD),"[4]; Rest of brain, 15 min",2.37 ± 0.34 % ID/g tissue
same,Regional distribution in CD-1 mouse brain (mean % ID/g tissue ± SD),"[4]; Rest of brain, 30 min",1.64 ± 0.06 % ID/g tissue
same,Regional distribution in CD-1 mouse brain (mean % ID/g tissue ± SD),"[4]; Rest of brain, 60 min",0.71 ± 0.10 % ID/g tissue
same,Regional distribution in CD-1 mouse brain (mean % ID/g tissue ± SD),"[4]; Rest of brain, 90 min",0.38 ± 0.04 % ID/g tissue
same,Regional distribution in CD-1 mouse brain (mean % ID/g tissue ± SD),"[4]; Striatum, 5 min",5.24 ± 0.45 % ID/g tissue
same,Regional distribution in CD-1 mouse brain (mean % ID/g tissue ± SD),"[4]; Striatum, 15 min",3.29 ± 0.36 % ID/g tissue
same,Regional distribution in CD-1 mouse brain (mean % ID/g tissue ± SD),"[4]; Striatum, 30 min",2.32 ± 0.15 % ID/g tissue
same,Regional distribution in CD-1 mouse brain (mean % ID/g tissue ± SD),"[4]; Striatum, 60 min",1.07 ± 0.14 % ID/g tissue
same,Regional distribution in CD-1 mouse brain (mean % ID/g tissue ± SD),"[4]; Striatum, 90 min",0.54 ± 0.07 % ID/g tissue
same,Peak brain uptake value,"[4]; mouse brain, peak (5 min post-injection)",5.2 % ID/g and 5 % ID/g
same,Residual (non-specific) binding at the high dose of the blocker,"sEH [5]; CD-1 mouse brain, blocker nor-fluoro-FNDP",10%
same,Blockade of uptake,"sEH [5]; mice, all brain regions, pre-treatment with sEH inhibitor",80-90%
same,Degree of specificity of cerebral sEH labeling,sEH [5]; two strains of control mice (CD-1 and C57BL/6),80-90%
same,"Regional uptake, baseline",sEH [6]; cerebellum,0.5 % ID/g
same,"Regional uptake, baseline","sEH [6]; striatum, hippocampus and cortex",about 1 % ID/g
same,"Brain uptake, blocking experiment","sEH [6]; C57BL6 mice, all regions studied, nor-fluoro-FNDP 1 mg/kg s.c., 60 min",~0.2 % ID/g tissue
same,Blocking effect,"sEH [6]; C57BL/6 controls, nor-fluoro-FNDP 1 mg/kg s.c.",about 80%
same,Reduction of uptake in sEH-KO mice as compared with controls,"sEH [6]; baseline, 60 min after radiotracer injection, C57BL/6 controls",about 90%
same,Radiotracer uptake in sEH-KO mice,sEH [6]; sEH-KO mice,Minimal
same,"Regional brain uptake, baseline","sEH [6]; sEH-KO mice, 60 min",0.11-0.12 % ID/g
same,Reduction of uptake in blockade study,"sEH [6]; sEH-KO mice, blocker nor-fluoro-FNDP",negligible
same,"Regional brain uptake, blocking","sEH [6]; sEH-KO mice, nor-fluoro-FNDP 1 mg/kg s.c., 60 min",0.10-0.11 % ID/g
same,Brain uptake in sEH-KO mice lower than in controls,sEH [6]; sEH-KO vs controls,10 fold
